Assay results published in patent publication US11447466B2, “Substituted indole compounds useful as inhibitors of TLR7/8/9” (BRISTOL-MYERS SQUIBB COMPANY, priority 2017, dated 2022).

Tests used:
Format in all cases: cell-based
[1] = biological target: T1, human TLR7 (Homo sapiens, UniProt Q9NYK1); assay: TLR7 inhibition reporter assay (HEK-Blue SEAP reporter, gardiquimod stimulation); conditions: HEK-Blue cells overexpressing human TLR7, SEAP reporter, gardiquimod 7.5 μM, 22 hour incubation
T1 construct: host or cells: HEK-Blue cells
T1 sequence (Q9NYK1 27-1049): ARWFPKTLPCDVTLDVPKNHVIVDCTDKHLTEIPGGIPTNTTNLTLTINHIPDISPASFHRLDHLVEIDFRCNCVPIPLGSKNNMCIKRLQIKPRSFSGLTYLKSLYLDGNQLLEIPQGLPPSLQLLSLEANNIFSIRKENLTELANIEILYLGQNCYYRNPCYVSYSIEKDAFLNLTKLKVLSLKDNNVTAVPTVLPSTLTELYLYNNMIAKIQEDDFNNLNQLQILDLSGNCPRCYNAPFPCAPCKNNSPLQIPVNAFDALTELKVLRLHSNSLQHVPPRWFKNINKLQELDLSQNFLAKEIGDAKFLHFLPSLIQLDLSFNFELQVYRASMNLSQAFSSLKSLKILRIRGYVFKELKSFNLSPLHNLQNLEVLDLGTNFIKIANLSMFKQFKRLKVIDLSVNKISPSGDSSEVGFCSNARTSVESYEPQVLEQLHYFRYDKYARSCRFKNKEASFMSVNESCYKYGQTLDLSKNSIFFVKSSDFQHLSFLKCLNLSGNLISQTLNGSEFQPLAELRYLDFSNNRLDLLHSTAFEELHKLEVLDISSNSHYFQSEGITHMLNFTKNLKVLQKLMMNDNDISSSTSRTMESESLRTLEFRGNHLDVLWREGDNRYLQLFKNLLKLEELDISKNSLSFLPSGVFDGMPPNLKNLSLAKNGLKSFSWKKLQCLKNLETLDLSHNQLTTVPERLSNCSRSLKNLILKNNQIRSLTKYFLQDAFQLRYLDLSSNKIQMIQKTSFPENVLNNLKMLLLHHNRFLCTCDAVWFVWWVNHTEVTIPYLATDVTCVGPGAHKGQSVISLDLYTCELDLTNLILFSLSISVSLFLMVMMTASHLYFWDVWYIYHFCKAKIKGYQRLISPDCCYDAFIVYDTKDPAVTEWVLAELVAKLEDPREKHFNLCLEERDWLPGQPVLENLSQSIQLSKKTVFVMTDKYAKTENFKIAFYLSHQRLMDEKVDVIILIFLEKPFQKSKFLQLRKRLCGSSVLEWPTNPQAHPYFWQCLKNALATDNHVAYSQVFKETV
Description: (§1) TLR7/8/9 Inhibition Reporter Assays
(§2) HEK-Blue™-cells (Invivogen) overexpressing human TLR7, TLR8 or TLR9 receptors were used for screening inhibitors of these receptors using an inducible SEAP (secreted embryonic alkaline phosphatase) reporter gene under the control of the IFN-β minimal promoter fused to five NF-κB and AP-1-binding sites. Briefly, cells are seeded into Greiner 384 well plates (15000 cells per well for TLR7, 20,000 for TLR8 and 25,000 for TLR9) and then treated with test compounds in DMSO to yield a final dose response concentration range of 0.05 nM-50 μM. After a 30 minute compound pre-treatment at room temperature, the cells are then stimulated with a TLR7 ligand (gardiquimod at a final concentration of 7.5 μM), TLR8 ligand (R848 at a final concentration of 15.9 μM) or TLR9 ligand (ODN2006 at a final concentration of 5 nM) to activate NF-κB and AP-1 which induce the production of SEAP. After a 22 hour incubation at 37° C., 5% CO2, SEAP levels are determined with the addition of HEK-Blue™ Detection reagent (Invivogen), a cell culture medium that allows for detection of SEAP, according to manufacturer's specifications. The percent inhibition is determined as the % reduction in the HEK-Blue signal present in wells treated with agonist plus DMSO alone compared to wells treated with a known inhibitor.

[2] = biological target: T2, human TLR8 (Homo sapiens, UniProt Q9NR97); assay: TLR8 inhibition reporter assay (HEK-Blue SEAP reporter, R848 stimulation); conditions: HEK-Blue cells overexpressing human TLR8, SEAP reporter, R848 15.9 μM, 22 hour incubation
T2 construct: host or cells: HEK-Blue cells
T2 sequence (Q9NR97 27-1041): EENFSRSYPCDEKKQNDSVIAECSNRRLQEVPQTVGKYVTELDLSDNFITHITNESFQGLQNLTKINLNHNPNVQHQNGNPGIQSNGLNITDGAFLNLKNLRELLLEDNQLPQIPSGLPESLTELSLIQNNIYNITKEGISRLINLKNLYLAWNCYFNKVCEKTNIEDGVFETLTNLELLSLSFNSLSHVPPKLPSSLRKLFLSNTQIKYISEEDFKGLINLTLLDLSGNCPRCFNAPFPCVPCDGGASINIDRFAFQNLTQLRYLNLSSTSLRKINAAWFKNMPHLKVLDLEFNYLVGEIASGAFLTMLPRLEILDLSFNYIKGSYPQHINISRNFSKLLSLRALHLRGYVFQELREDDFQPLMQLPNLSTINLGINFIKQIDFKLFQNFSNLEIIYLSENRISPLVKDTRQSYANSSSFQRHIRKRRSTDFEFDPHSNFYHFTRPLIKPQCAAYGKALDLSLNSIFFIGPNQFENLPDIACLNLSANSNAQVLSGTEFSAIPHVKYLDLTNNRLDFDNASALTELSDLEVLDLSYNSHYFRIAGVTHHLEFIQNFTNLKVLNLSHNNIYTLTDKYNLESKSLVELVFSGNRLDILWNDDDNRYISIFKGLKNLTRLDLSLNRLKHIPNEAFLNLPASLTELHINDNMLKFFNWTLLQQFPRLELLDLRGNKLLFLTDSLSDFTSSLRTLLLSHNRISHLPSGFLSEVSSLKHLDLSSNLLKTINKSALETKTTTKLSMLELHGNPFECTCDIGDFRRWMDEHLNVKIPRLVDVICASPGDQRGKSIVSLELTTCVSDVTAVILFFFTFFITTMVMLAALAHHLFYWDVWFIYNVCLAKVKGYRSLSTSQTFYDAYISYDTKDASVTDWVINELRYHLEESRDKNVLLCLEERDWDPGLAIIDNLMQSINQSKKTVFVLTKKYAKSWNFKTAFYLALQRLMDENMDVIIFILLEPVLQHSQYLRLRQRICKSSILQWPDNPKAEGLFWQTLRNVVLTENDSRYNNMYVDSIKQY
Description: as §1, §2

[3] = biological target: T3, human TLR9 (Homo sapiens, UniProt Q9NR96); assay: TLR9 inhibition reporter assay (HEK-Blue SEAP reporter, ODN2006 stimulation); conditions: HEK-Blue cells overexpressing human TLR9, SEAP reporter, ODN2006 5 nM, 22 hour incubation
T3 construct: host or cells: HEK-Blue cells
T3 sequence (Q9NR96 26-1032): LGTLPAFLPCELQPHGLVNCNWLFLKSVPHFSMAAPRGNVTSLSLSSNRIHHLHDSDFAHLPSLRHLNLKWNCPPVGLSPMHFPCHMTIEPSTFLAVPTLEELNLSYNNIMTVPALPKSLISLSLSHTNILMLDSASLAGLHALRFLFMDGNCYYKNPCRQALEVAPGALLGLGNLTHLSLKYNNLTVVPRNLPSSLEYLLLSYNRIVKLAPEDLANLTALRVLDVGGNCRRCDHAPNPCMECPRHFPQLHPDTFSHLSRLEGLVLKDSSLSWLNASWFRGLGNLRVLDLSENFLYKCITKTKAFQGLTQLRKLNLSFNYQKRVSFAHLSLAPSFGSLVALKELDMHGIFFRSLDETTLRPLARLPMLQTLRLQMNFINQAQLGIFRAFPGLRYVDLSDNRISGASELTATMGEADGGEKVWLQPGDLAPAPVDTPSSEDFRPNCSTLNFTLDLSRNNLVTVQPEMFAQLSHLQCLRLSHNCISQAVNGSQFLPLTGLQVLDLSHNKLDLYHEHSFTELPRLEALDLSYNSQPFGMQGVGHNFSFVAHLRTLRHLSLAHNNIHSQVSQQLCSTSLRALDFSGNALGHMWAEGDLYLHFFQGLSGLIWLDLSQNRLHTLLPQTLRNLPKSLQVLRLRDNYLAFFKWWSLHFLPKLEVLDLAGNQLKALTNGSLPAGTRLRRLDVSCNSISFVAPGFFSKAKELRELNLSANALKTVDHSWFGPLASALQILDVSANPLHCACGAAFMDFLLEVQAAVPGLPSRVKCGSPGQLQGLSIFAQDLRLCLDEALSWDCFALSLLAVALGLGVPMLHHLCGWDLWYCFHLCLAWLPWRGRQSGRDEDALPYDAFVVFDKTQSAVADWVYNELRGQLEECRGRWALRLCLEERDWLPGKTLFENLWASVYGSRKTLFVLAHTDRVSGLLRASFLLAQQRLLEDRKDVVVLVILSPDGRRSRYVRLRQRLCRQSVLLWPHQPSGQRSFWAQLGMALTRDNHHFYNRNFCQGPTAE
Description: as §1, §2

| Compound | IC50 [1] [nM] | IC50 [2] [nM] | IC50 [3] [nM] |
| --- | --- | --- | --- |
| CC(C)c1c(-c2cc(-c3ccccc3)c(=O)n(C)c2)[nH]c2ccc(C3CCNCC3)cc12 [Example 53, 5-(3-isopropyl-5-(piperidin-4-yl)-1H-indol-2-yl)-1-methyl-3-phenylpyridin-2(1H)-one] | 11.4 | 10.3 | – |
| Cc1cc(-c2[nH]c3ccc(C4CCN(C(=O)C5(N)CC5)CC4)cc3c2C(C)C)cn(C)c1=O [Example 272, 5-(5-(1-(1-aminocyclopropanecarbonyl)piperidin-4-yl)-3-isopropyl-1H-indol-2-yl)-1,3-dimethylpyridin-2(1H)-one] | 7.9 | 53 | – |
| Cc1cc(-c2[nH]c3ccc(C4CCN(C(=O)[C@H]5C[C@H](O)CN5)CC4)cc3c2C(C)C)cn(C)c1=O [Example 288, 5-(5-(1-((2R,4S)-4-hydroxypyrrolidine-2-carbonyl)piperidin-4-yl)-3-isopropyl-1H-indol-2-yl)-1,3-dimethylpyridin-2(1H)-one] | 17.4 | 61.7 | – |
| Cc1cc(-c2[nH]c3ccc(C4CCN(C(=O)[C@@H]5C[C@@H](O)CN5)CC4)cc3c2C(C)C)cn(C)c1=O [Example 290, 5-(5-(1-((2S,4R)-4-hydroxypyrrolidine-2-carbonyl)piperidin-4-yl)-3-isopropyl-1H-indol-2-yl)-1,3-dimethylpyridin-2(1H)-one] | 8.3 | – | – |
| Cc1cc(-c2[nH]c3ccc(C4CCN(C(=O)[C@@H]5C[C@@H](O)CN5)CC4)cc3c2C(C)C)cn(C)c1=O [Example 293, 5-(5-(1-((2S,4R)-4-hydroxypyrrolidine-2-carbonyl)piperidin-4-yl)-3-isopropyl-1H-indol-2-yl)-1,3-dimethylpyridin-2(1H)-one] | 21.6 | – | – |

More lines, now with the values ahead:

| IC50 [1] [nM] | IC50 [2] [nM] | IC50 [3] [nM] | Compound |
| --- | --- | --- | --- |
| 165 | 18.5 | – | CCn1nc(-c2[nH]c3ccc(C4CCNCC4)cc3c2C(C)C)c(C)c(C)c1=O [Example 27, 2-ethyl-6-(3-isopropyl-5-(piperidin-4-yl)-1H-indol-2-yl)-4,5-dimethylpyridazin-3(2H)-one] |
| – | – | ≥ 50000 | CC(C)c1c(-c2cc(CCC3CC3)c(=O)n(C)c2)[nH]c2ccc(C3CCNCC3)cc12 [Example 62, 3-(2-cyclopropylethyl)-5-(3-isopropyl-5-(piperidin-4-yl)-1H-indol-2-yl)-1-methylpyridin-2(1H)-one] |
| 67.5 | 53.2 | – | Cc1cc(-c2[nH]c3ccc(C4CCN(CCC(C(F)(F)F)C(F)(F)F)CC4)cc3c2C(C)C)cn(C)c1=O [Example 88, 5-(3-isopropyl-5-(1-(4,4,4-trifluoro-3-(trifluoromethyl)butyl)piperidin-4-yl)-1H-indol-2-yl)-1,3-dimethylpyridin-2(1H)-one] |
| 57.7 | 97 | – | Cc1cc(-c2[nH]c3ccc(C4CCN(C5CCC(C(C)C)CC5)CC4)cc3c2C(C)C)cn(C)c1=O (centres unmarked) [Example 233, 5-(3-isopropyl-5-(1-(4-isopropylcyclohexyl)piperidin-4-yl)-1H-indol-2-yl)-1,3-dimethylpyridin-2(1H)-one] |
| 40.2 | 52.3 | – | Cc1cc(-c2[nH]c3ccc(C4CCN(C5CCC(C(C)C)CC5)CC4)cc3c2C(C)C)cn(C)c1=O (centres unmarked) [Example 234, 5-(3-isopropyl-5-(1-(4-isopropylcyclohexyl)piperidin-4-yl)-1H-indol-2-yl)-1,3-dimethylpyridin-2(1H)-one] |
| 14.1 | 1.1 | – | CCCN1CCC(c2ccc3[nH]c(-c4cc(-c5cncnc5)c(=O)n(C)c4)c(C(C)C)c3c2)CC1 [Example 249, 5-(3-isopropyl-5-(1-propylpiperidin-4-yl)-1H-indol-2-yl)-1-methyl-3-(pyrimidin-5-yl)pyridin-2(1H)-one] |
| 7.2 | 40.7 | – | Cc1cc(-c2[nH]c3ccc(C4CCN(C(=O)[C@H]5C[C@H](O)CN5)CC4)cc3c2C(C)C)cn(C)c1=O [Example 292, 5-(5-(1-((2R,4S)-4-hydroxypyrrolidine-2-carbonyl)piperidin-4-yl)-3-isopropyl-1H-indol-2-yl)-1,3-dimethylpyridin-2(1H)-one] |
| 15.8 | 32.4 | – | Cc1cc(-c2[nH]c3ccc(C4CCN(CC(C)(C)O)CC4)cc3c2C(C)C)cn(Cc2ccccc2)c1=O [Example 329, 1-benzyl-5-(5-(1-(2-hydroxy-2-methylpropyl)piperidin-4-yl)-3-isopropyl-1H-indol-2-yl)-3-methylpyridin-2(1H)-one] |
